# Literature values in patent US10485789B2, “Compositions and methods for targeting receptors expressed in the gut” (Sensor Pharmaceuticals, Inc., priority 2014, dated 2019).
# Test system: DSS injury model
# Conditions: mice pretreated with antibiotics
smiles,measurement,value
O=C(O)c1cccnc1 [niacin],effect in the DSS injury model,dramatic effect
